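All cell lines were grown in 96-well plates and treated with compound for 48 hours. GI50: concentration for 50% inhibition of growth.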 The source made the active and inactive calls. Cut-off read from the data, not from the text of the source: active = GI50 up to about 1.1 µM and inactive = higher.
Legend:
Assay in all cases: growth of human tumour cells (NCI), 48 h
HOP-18 = test system: HOP-18
SNB-78 = test system: SNB-78
RXF 631 = test system: RXF 631
DMS-114 = test system: DMS-114
DMS-273 = test system: DMS-273
XF498 = test system: XF498
KM-20L2 = test system: KM-20L2
MDA-N = test system: MDA-N
BT-549 = test system: BT-549

Measured: GI50

O=C1c2ccccc2C(=O)c2c(O)c(NCCCNCCO)cc(O)c21
inactive: HOP-18 2.41 µM | SNB-78 11.2 µM | RXF 631 6.34 µM | DMS-114 11 µM | DMS-273 4.97 µM | XF498 16 µM

COc1ccc(C(=O)Nc2ccccc2)cc1[N+](=O)[O-]
inactive: SNB-78 > 100 µM | RXF 631 > 100 µM | DMS-114 52.4 µM | DMS-273 > 100 µM | XF498 > 100 µM | KM-20L2 > 100 µM

CCOC(=O)c1c(CN2CCNCC2)nc2ccc(Cl)cc2c1-c1ccccc1
inactive: HOP-18 1.79 µM | SNB-78 8.18 µM | RXF 631 2.56 µM | MDA-N 5.78 µM | DMS-114 1.91 µM | DMS-273 2.32 µM | XF498 3.15 µM | BT-549 13.1 µM | KM-20L2 2.64 µM

O=C(c1cccc2ccccc12)N1CCC(C2CCN(C(=O)c3cccc4ccccc34)CC2)CC1
inactive: HOP-18 > 100 µM | SNB-78 70.1 µM | RXF 631 > 100 µM | DMS-114 > 100 µM | DMS-273 > 100 µM | XF498 89.3 µM | KM-20L2 > 100 µM

CC(NS(=O)(=O)c1ccc([N+](=O)[O-])cc1)C(=O)O (configuration not stated)
inactive: HOP-18 > 100 µM | RXF 631 > 100 µM | DMS-273 > 100 µM | XF498 > 100 µM | KM-20L2 > 100 µM

N#CSCc1nc2ccc(Cl)cc2c(-c2ccccc2)[n+]1[O-]
inactive: HOP-18 19.5 µM | SNB-78 36.9 µM | RXF 631 37.9 µM | DMS-114 24.5 µM | XF498 17.4 µM | KM-20L2 16.6 µM

COc1ccc(/C=C/c2cc(OC)c(OC)c(OC)c2)cc1OC
inactive: HOP-18 > 100 µM | SNB-78 36.1 µM | RXF 631 > 100 µM | DMS-114 > 100 µM | DMS-273 > 82.2 µM | XF498 77.8 µM | KM-20L2 > 100 µM

CCCCCC(=O)C(C)C1=Nc2nnc(CCCCCCCc3nnc4n3C(=O)C(C(C)C(=O)CCCCC)=N4)n2C1=O (configuration not stated)
inactive: HOP-18 > 100 µM | RXF 631 > 100 µM | DMS-114 > 100 µM | XF498 > 100 µM | KM-20L2 > 100 µM

Cc1c2c(cc[n+]1C)O[B-](c1ccccc1)(c1ccccc1)O2
inactive: HOP-18 58.6 µM | SNB-78 88.3 µM | RXF 631 67.6 µM | DMS-114 61.1 µM | DMS-273 36.5 µM | XF498 35 µM | KM-20L2 71 µM

O=[N+]([O-])c1cc(C(F)(F)F)cc2n[se]nc12
inactive: HOP-18 3.14 µM | SNB-78 12.3 µM | RXF 631 11 µM | MDA-N 1.91 µM | DMS-114 2.36 µM | DMS-273 13.2 µM | XF498 2.39 µM | BT-549 2.81 µM | KM-20L2 6.81 µM

O=C1[C@@H]2C(c3cccc([N+](=O)[O-])c3)=NO[C@@H]2C(=O)N1c1ccc(Cc2ccc(N3C(=O)[C@H]4C(c5cccc([N+](=O)[O-])c5)=NO[C@H]4C3=O)cc2)cc1
inactive: HOP-18 > 100 µM | SNB-78 > 100 µM | RXF 631 > 100 µM | DMS-114 > 100 µM | DMS-273 > 100 µM | KM-20L2 > 100 µM

C[C@H]1C(=O)CC[C@]2(C)CCC(C(C)(C)O)CC12O (some centres not stated)
inactive: HOP-18 > 100 µM | SNB-78 > 100 µM | RXF 631 > 100 µM | DMS-114 > 100 µM | DMS-273 > 100 µM | KM-20L2 > 100 µM

COc1ccc(C2=NC(CO)[C@H](c3ccccc3)O2)cc1OC (some centres not stated)
inactive: RXF 631 > 100 µM | DMS-114 > 100 µM | DMS-273 > 100 µM | XF498 > 100 µM | KM-20L2 > 100 µM

CC1=C2C(=O)[C@H]3[C@@H](CC=C4C[C@@H](O)CC[C@@]43C)[C@@H]2CC[C@]12O[C@@H]1C[C@H](C)CN[C@H]1[C@H]2C [JERVINE]
inactive: HOP-18 17.1 µM | SNB-78 19.2 µM | RXF 631 23.2 µM | MDA-N > 100 µM | DMS-114 18.9 µM | DMS-273 22 µM | BT-549 > 100 µM | KM-20L2 28.9 µM
